Where two headings read alike, the source gives them in different places.
Tests used:
human OCTN1 = molecular target: T1, human OCTN1 (Homo sapiens, UniProt Q9H015); assay: Hydroxyurea uptake in HEK293 cells overexpressing hOCTN1; format: cell-based; details: percentage of control cells (100%)
T1 sequence (Q9H015 1-551): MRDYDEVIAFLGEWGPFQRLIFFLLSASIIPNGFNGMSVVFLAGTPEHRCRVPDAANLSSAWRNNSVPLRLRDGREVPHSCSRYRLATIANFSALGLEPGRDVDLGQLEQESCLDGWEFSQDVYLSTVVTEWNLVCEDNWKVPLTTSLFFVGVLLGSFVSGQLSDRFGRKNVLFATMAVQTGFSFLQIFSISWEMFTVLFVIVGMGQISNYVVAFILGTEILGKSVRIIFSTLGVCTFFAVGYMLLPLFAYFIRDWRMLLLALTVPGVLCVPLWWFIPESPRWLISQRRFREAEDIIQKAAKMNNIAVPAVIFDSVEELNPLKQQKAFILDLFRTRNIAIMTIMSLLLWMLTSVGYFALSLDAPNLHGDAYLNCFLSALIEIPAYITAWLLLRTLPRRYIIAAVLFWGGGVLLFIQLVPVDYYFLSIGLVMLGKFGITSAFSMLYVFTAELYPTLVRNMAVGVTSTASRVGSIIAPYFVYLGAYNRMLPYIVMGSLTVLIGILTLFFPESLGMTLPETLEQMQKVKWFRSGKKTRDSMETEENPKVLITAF

human OCTN2 = molecular target: T2, human OCTN2 (Homo sapiens, UniProt O76082); assay: Hydroxyurea uptake in HEK293 cells overexpressing hOCTN2; format: cell-based; details: percentage of control cells (100%)
T2 sequence (O76082 1-557): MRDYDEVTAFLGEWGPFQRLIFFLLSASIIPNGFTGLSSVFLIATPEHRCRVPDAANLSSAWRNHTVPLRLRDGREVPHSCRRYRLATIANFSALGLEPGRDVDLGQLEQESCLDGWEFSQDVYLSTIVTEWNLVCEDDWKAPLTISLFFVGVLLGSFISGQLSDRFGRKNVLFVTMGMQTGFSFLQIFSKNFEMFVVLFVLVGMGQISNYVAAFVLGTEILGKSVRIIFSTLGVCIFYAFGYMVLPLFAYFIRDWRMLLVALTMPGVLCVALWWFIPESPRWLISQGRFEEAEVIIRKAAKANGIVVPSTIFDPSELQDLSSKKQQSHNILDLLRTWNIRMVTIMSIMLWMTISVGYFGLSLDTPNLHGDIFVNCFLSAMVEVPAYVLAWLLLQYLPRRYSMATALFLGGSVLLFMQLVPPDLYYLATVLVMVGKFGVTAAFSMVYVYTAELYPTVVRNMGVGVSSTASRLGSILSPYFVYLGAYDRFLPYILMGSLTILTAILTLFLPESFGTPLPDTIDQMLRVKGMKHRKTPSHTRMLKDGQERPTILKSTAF

[1] = PAMPA
[2] = humans, oral; cited from earlier work
hOATP1B3 = molecular target: T3, hOATP1B3 (Homo sapiens, UniProt Q9NPD5); assay: Inhibition of OATP1B3-mediated hydroxyurea accumulation in oocytes; format: cell-based; details: for Hydroxyurea accumulation in OATP1B3 oocytes, % of accumulation without inhibitor: 1mM inhibitor co-incubation, in 1% DMSO
T3 sequence (Q9NPD5 1-702): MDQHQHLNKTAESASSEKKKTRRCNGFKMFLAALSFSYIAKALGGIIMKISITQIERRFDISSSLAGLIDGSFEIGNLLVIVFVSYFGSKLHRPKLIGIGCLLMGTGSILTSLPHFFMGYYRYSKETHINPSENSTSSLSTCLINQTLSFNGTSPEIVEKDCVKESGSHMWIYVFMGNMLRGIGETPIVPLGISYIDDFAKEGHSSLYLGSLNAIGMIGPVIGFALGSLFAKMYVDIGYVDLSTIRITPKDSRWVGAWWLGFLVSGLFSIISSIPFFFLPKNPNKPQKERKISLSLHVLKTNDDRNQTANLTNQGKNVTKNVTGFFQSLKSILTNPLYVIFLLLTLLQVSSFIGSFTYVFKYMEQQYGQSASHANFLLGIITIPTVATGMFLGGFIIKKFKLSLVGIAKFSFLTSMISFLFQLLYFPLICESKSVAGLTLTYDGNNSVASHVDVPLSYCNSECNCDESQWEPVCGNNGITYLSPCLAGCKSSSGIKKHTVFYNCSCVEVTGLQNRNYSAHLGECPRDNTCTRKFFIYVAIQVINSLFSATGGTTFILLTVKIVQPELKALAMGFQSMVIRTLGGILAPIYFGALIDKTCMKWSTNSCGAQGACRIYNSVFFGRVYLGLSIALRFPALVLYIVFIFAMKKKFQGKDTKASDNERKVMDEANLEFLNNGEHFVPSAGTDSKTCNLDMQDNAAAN

[3] = Parallel artificial membrane permeability assay; details: 4% lipid bilayer; 16-hours incubation at room temperature
UTB = molecular target: T4, UTB (Homo sapiens, UniProt Q13336); assay: Transcellular transport assay in LLC-PK1 cells overexpressing UTB; format: cell-based; details: 1mM dimethylurea
T4 sequence (Q13336 1-389): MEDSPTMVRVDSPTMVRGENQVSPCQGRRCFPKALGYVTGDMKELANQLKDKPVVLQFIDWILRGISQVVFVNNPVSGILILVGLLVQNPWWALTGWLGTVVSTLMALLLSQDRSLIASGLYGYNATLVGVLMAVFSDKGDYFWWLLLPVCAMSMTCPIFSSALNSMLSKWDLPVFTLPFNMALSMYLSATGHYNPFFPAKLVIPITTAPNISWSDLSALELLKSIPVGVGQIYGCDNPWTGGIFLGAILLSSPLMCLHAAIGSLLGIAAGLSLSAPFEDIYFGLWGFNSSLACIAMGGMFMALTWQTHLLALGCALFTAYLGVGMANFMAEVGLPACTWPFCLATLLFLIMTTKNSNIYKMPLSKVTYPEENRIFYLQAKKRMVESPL

In the case of `NC(=O)NO` [hydroxyurea], the “hydroxyurea uptake compared to controls” value (human OCTN1) is reported as 130%, the “hydroxyurea uptake compared to controls” value (human OCTN2) is reported as 113% and the “10 + logPe” value [1] is reported as 2.597. For the same compound, the “estimated permeability rate (log Pe + 10)” value [1] was 2.385, the Tmax [2] was 1.22 h and the bioavailability [2] was “nearly complete”.

With `CN(Cc1cnc2nc(N)nc(N)c2n1)c1ccc(C(=O)N[C@@H](CCC(=O)O)C(=O)O)cc1` [methotrexate] the “lowering of hydroxyurea accumulation in OATP1B3 oocytes” value (hOATP1B3; 1mM co-incubation in the absence of DMSO) was 50% and the “10 + logPe” value ([1]; 16 h) was 2.022.

For `Cc1ncc2n1-c1ccc(Cl)cc1C(c1ccccc1F)=NC2` [midazolam], the “10 + logPe” value [3] was 4.707.

In the case of `C[C@@H]1O[C@@H](O[C@H]2[C@H](Oc3cc(O)c4c(c3)O[C@H](c3ccc(O)cc3)CC4=O)O[C@H](CO)[C@@H](O)[C@@H]2O)[C@H](O)[C@H](O)[C@H]1O` [naringin], the “Hydroxyurea accumulation in OATP1B3 oocytes, % of accumulation without inhibitor” value (hOATP1B3) is reported as 30%.

For `CO[C@H]1/C=C/O[C@@]2(C)Oc3c(C)c(O)c4c(O)c(c(/C=N/N5CCN(C)CC5)c(O)c4c3C2=O)NC(=O)/C(C)=C\C=C\[C@H](C)[C@H](O)[C@@H](C)[C@@H](O)[C@@H](C)[C@H](OC(C)=O)[C@@H]1C` [rifampin], the “Hydroxyurea accumulation in OATP1B3 oocytes, % of accumulation without inhibitor” value (hOATP1B3) was 30%.

With `NC(N)=O` [urea] the “10 + logPe” value [1] was 2.712 and the “estimated permeability rate (log Pe + 10)” value [1] was 2.335.

In the case of dimethylurea, the “effect on hydroxyurea transport” value (UTB) is reported as “marginally inhibited”.
